Laboratory results from patent US20170216340A1, “A Nucleoside Derivative For Use As A Drug, Particularly For The Treatment Of Chronic Lymphocytic Leukemia” (INSTYTUT BIOLOGII MEDYCZNEJ POLSKIEJ AKADEMII NAUK, priority 2014, published 2017).
Entries after “also recorded” stand apart in the source; their conditions may differ.

Assays:
normal PBMCs = experiment: Cytotoxicity in normal PBMCs (propidium iodide; Membrane Permeability/Dead Cell Apoptosis Kit); format: cell-based, human; settings: normal PBMCs from healthy donors, 24 and 48 h
Protocol: (§1) During the first stage, the cytotoxicity analysis of compounds according to the present invention introduced into the culture medium in increasing concentrations (from 0 μM to 60 μM) against leukemic and healthy peripheral blood mononuclear cells (PBMCs). The goal of this stage was to select the optimal concentrations which would be useful for the further comparative analysis of novel compound with conventional chemotherapeutics, i.e. cladribine and fludarabine, in terms of their antileukemic efficacy. The cytotoxicity of compounds was evaluated in PBMCs isolated from the blood of 5 patients with CLL, 1 with PLL and 5 healthy donors after 24 and 48 h. of incubation. Cell survival was evaluated cytometrically using propidium iodide staining using the Membrane Permeability/Dead Cell Apoptosis assay (propidium iodide+YO-PRO). […] FIG. 1a represents the survival of healthy cells treated with compounds according to the present invention at increasing concentrationsand evaluated using the Membrane Permeability/Dead Cell Apoptosis assay.
(§2) PBMC cells were isolated from peripheral blood using centrifugation via a Histopaque gradient according to the manufacturer's instructions. […] The cytotoxicity was assessed cytometrically after 24 and 48 h incubation.
(§3) Firstly, it was analyzed by propidium iodide staining. […]

CLL cells = experiment: Cytotoxicity in leukemic PBMCs from CLL patients; format: cell-based; settings: 24 and 48 h
Protocol: as §1, §2, §3

PLL cells = experiment: Viability and apoptosis induction in PLL PBMCs (Membrane Permeability/Dead Cell Apoptosis Kit); format: cell-based, human; settings: 15 μM, 1 case of PLL, very preliminary data
Protocol: The 15 μM concentration of the used agents, as safe for normal PBMCs, was selected for further analyses with regard to their apoptosis-inducing potential. The viability and apoptosis induction were examined in cell samples obtained from peripheral blood of 6 patients with leukemia (5 cases of CLL and 1 case of PLL). […] It is worth noting that the agents differed in their apoptosis inducing potential in PLL cells.
Firstly, it was analyzed by propidium iodide staining. Then, Membrane Permeability/Dead Cell Apoptosis Kit (Molecular Probes, Invitrogen™) was used to examine the contribution of apoptosis to cell death induction after exposure to the used agents. The analyses were performed on BD LSR II flow cytometry using FACSDiva Version 6.1.2 software. Ten thousand events were examined for each analysis. The distinction between living (YO-PRO-negative/propidium iodide-negative), early apoptotic (YO-PRO-positive/propidium iodide-negative) and dead (YO-PRO-positive/propiodium iodide-positive) cells was based on the differences in their permeability for fluorescent dyes. The results are shown as the percent of viable and early apoptotic cells in gated PBM cell population, respectively.
For further analyses the concentration of 15 μM of all tested agents was chosen. […]

caspase 3 = experiment: Caspase-3 activation assay (PE Active Caspase-3 Apoptosis Kit, flow cytometry); format: cell-based, human; parameters: number of caspase-3-positive cells: dose or concentration left out as unconfirmed; settings: PLL cells; for number of cells with active form of caspase 3: 48 h drug exposure, 15 μM
Protocol: Caspase 3 is a main effector caspase which is involved in apoptosis process realization (Miura M., Zhu H., Otello R., Hartwieg E.A., Yuan J. 1993. Induction of apoptosis in fibroblasts by IL-1 beta-converting enzyme, a mammalian homolog of the C. elegans cell death gene ced-3, Cell, 75, 653-660). […] Our analysis, conducted after 48 h drug exposure, confirmed that in PLL cells a high antileukemic potential of adenosine modified at C-2 position with boron cluster is related to apoptosis induction. The number of cells with active form of the enzyme raised after the exposure to compound 3 from 9.4% and 10.6% in control and vehicle control (DMSO), respectively, to 28.5%. Similar effect (20,1%) was observed after the incubation of PLL cells with cladribine at concentration of 15 μM which recursively exceeds its level in serum of patients during antileukemic therapy. […] Of note, compound 5 affected PLL cells weaker than compound 3 which was confirmed by caspase 3 activation in 16.1% of leukemic cells.
The percent of leukemic PBMCs with active form of caspase-3 was measured cytometrically by PE Active Caspase-3 Apoptosis Kit, BD Pharmingen according to manufacturer's protocol. The analyses were conducted after 48 h incubation with/without (control) the agents or DMSO (vehicle control). BD LSR II flow cytometer was used and the analyses were performed using FACSDiva Version 6.1.2 software (see results in FIG. 2).

[1] = system: PARP-1, Bax, Bcl-2, Mcl-1; experiment: Western blot analysis of apoptosis-related proteins in CLL and PLL cells; format: cell-based, human; settings: 15 μM; for expression level of Bcl-2 in comparison to vehicle control: PBMC samples from Patient 2, 48 h
Protocol: The expression of apoptosis-related proteins was assessed in CLL and PLL cells exposed to the tested agents. All examined adenosine derivatives triggered proteolysis of PARP-1 full length protein (116 kDa) to its cleavage product (89 kDa), which is a known marker of apoptosis. Moreover, altered expression of pro-apoptotic (Bax) and anti-apoptotic proteins (Mcl-1, Bcl-2) from Bcl-2 family was also observed in purine derivative-treated leukemic cells. However, there were some individual differences between basal levels of these apoptotic regulators in model cells, as well as the changes in their cellular levels after the agent exposure were diverse. For instance, there were no significant alterations in Bax/Bcl-2 ratio in cell samples obtained from exemplary patient 1 exposed to the novel nucleosides.
Control PBMCs (without the agents), as well as the cells samples exposed to DMSO (vehicle control) and the tested agents were lysed (4° C., 1 h) in a buffer containing 10 mM Tris-HCl (pH 7.5), 300 mM NaCl, 1% Triton X-100, 2 mM MgCl2, 0.1 M DTT, and protease inhibitors as described previously (A., Kobylinska, J., Bednarek, J. Z., Blonski, M., Hanausek, Z., Walaszek, H., Piekarski, T., Robak, Z. M., Kilianska. 2006. In vitro sensitivity of B-cell chronic lymphocytic leukemia to cladribine and its combinations with mafosfamide and/or mitoxantrone, Oncol. Rep., 16, 1389-1395). Protein content was estimated according to Lowry method (O. H., Lowry, N. J., Rosebrough, A. L., Farr, R. J., Randall. 1951. Protein measurement with the Folin phenol reagent. J. Biol. Chem., 193, 265-275) and the cell lysates were prepared for subsequent Western blotting analysis. Protein samples (60 μg/lane) were separated by SDS polyacrylamide gel electrophoresis (SDS-PAGE) on 8.0 or 12.5% slab gels and electrotransfered onto Immobilon P (H., Towbin, T., Staechlin, J., Gordon, 1979, Electrophoretic transfer of protein from polyacrylamide gels to nitrocellulose sheets: procedure and some applications. Proc. Natl. Acad. Sci. USA, 76, 4350-4354). Membrane staining with 0.5% Ponceau S solution was done to confirm equal protein loading and completeness of the transfer. The membranes were saturated in 5.0% skim milk in TBS (10 mM Tris-HC1, pH 7.5, 150 mM NaC1) for 1 h at ambient temperature, and then incubated overnight with antibodies specific to Mcl -1 (1:1000), Bcl-2 (1:1000), Bax (1:1000), PARP-1 (1:1000), all from Santa Cruz Biotechnology Inc. Antigen recognition was performed with appropriate secondary antibodies conjugated with horseradish peroxidase. The antigen-antibodies complexes were detected with Novex HRP Chromogenic substrate (TMB) from Invitrogen or, alternatively, by chemiluminescence method (see results in FIG. 3).

Row | Compound | cytotoxicity against normal PBMCs (normal PBMCs) | cytotoxicity / anti-leukemic potential against CLL cells (CLL cells) | anti-leukemic (apoptosis inducing) potential against PLL cells (PLL cells) | number of cells with active form of caspase 3 (caspase 3) | expression level of Bcl-2 in comparison to vehicle control [1] | number of caspase-3-positive cells (caspase 3; 48 h) [%] | Bax expression level ([1]; cells from patient 1, 48 h) | Bcl-2 protein level ([1]; cells from patient 1, 48 h)
1 | 2-ethynyl-(1,12-dicarba-closo-dodecaboran-2-yl)adenosine [compound 3] | less cytotoxic against normal PBMCs; also recorded: lower than fludarabine | smaller anti-leukemic potential against CLL cells than compound 5 | very potent against PLL cells; also recorded: even higher than that of cladribine and fludarabine | 28.5% | clear decrease |  |  | 
2 | 8-ethynyl-(1,12-dicarba-closo-dodecaboran-2-yl-2′-deoxyadenosine [compound 5] |  | more cytotoxic in comparison to compound 3 |  | 16.1% | clear decrease |  |  | 
3 | Nc1nc(Cl)nc2c1ncn2[C@H]1C[C@H](O)[C@@H](CO)O1 [cladribine, reference compound] |  |  |  | 20,1% |  | 11.8 | essential increase | diminution
4 | Nc1nc(F)nc2c1ncn2[C@@H]1O[C@H](CO)[C@@H](O)[C@@H]1O [fludarabine] |  |  |  | 11.8% |  |  |  | 
